Laboratory results taken from US4737487A, “VIP type peptides” (Beecham Group p.l.c., priority 1984, dated 1988).
Where a SMILES comes first, the peptide text is derived from it. [ ]: non-standard residue; d: D form. Nle = CCCC[C@H](N)C(=O)O

Columns and labels:
[1] = tested on: proximal duodenum acid disposal capacity; assay: Acid disposal capacity of the rat proximal duodenum (anti-ulcer activity); type: in vivo; details: significance P<0.05
Experimental: Anti-ulcer activity may be related to the enhanced capacity to dispose of gastric acid. Acid disposal capacity may be enhanced by increased intestinal secretions and enhanced acid disposal capacity is believed to be useful in the treatment of peptic ulcer disease. Method for estimating the acid disposal capacity of the rat proximal duodenum Male Wistar rats, 180-250 g bodyweight, fasted overnight, are anaesthetized with urethane (150 mg/100 g bodyweight i.m.). The trachea is cannulated, and a gastric cannula, 0.5 cm i.d., 3 cm long, is inserted into the non-glandular forestomach via a mid-line abdominal incision. The intragastric cannula is exteriorized via a stab wound in the body wall. A triple lumen catheter, 0.3 cm o.d., is passed via the gastric cannula through the pylorus. The duodenum is ligated 1 cm below the pylorus, and the pylorus ligated around the cannula, thus creating a 1 cm proximal duodenal pouch excluding pancreatic and biliary secretions. The two ligatures enclosing the duodenal pouch are placed so as to avoid occluding the blood supply to the duodenal segment. Gastric secretions are allowed to drain freely from the gastric cannula. […] Outflow pH is recorded throughout the experiment. […] A group size of 6 animals or larger is used and the effect of compounds on the output pH compared to control data determined. […]

[2] = tested on: spontaneous motility of proximal colon; assay: Colonic motility in vivo: intraluminal pressure recording in anaesthetised rat; details: urethane-anaesthetised male Wistar rats; intravenous administration; 3 μmol/kg
Experimental: Male albino rats, Wistar strain (Charles River UK) 300-500 g were anaesthetised with urethane. A segment of proximal colon was prepared for intraluminal pressure recording after the method of Maggi and Meli (Maggi, C. A. and Meli, A. (1982), J. Pharmacol. Methods 8, 39-46). The activity of the compound (V) was assessed from its action on the spontaneous motility of the preparation after intravenous administration.

[3] = tested on: spontaneous contractile responses of circular muscle from the proximal colon; assay: Colonic motility in vitro: isolated circular muscle of rat proximal colon; type: cell-based; details: rat proximal colon circular muscle in Krebs solution, isolated tissue bath
Experimental: Segments of circular muscle cut from the proximal colon of rats were mounted in Krebs solution in isolated tissue baths after the methods of Couture et al. (Couture R. et al. (1981), Can. J. Physiol. Pharmacol., 59, 957-964; and Couture R. et al., (1982), Pharmacol., 24, 230-242). The activity of the compound V was assessed from the effect on the spontaneous contractile responses generated by this tissue.

`CCCC[C@H](NC(=O)[C@H](CCC(N)=O)NC(=O)[C@@H](N)CCCCN)C(=O)N[C@@H](C)C(=O)N[C@@H](CC(C)C)C(=O)N[C@@H](CCCCN)C(N)=O` [Example 4, H-Lys-Gln-Nle-Ala-Leu-Lys-NH2.Acetate] (H-KQ[Nle]ALK-NH2) was tested, and the “acid disposal (output pH compared to control)” value ([1]; 30 nmol/kg/h i.v. infusion, input pH 2.5 on first pass) was “significant increase” and the “acid disposal (output pH compared to control)” value ([1]; 150 nmol/kg/h i.v. infusion, input pH 3 and 2.5 on first pass and input pH 2.5 on second pass) was “significant increase”.
In the case of `CCCC[C@H](NC(=O)[C@H](CCC(N)=O)NC(=O)[C@@H](N)CCCCN)C(=O)N[C@@H](C)C(=O)N[C@H](C(=O)N[C@@H](CCCCN)C(N)=O)C(C)C` [V, H-Lys-Gln-Nle-Ala-Val-Lys-NH2] (H-KQ[Nle]AVK-NH2), the “action on the spontaneous motility of the proximal colon preparation” value [2] was “active” and the “ED50, effect on spontaneous contractile responses” value [3] was 10^-5 M.
